One block for each molecule: values may come before it.
Tests used:
angiotensin II receptor = target: T1, angiotensin II receptor (Oryctolagus cuniculus, UniProt P34976); assay: Antagonism of contraction of rabbit aorta (angiotensin II functional assay, isolated rabbit aorta); parameters: species or system rabbit (female New Zealand White); conditions: Schild analysis; for Kb: pA2 = negative logarithm of [A]2
T1 construct: Main abdominal aortas were removed and placed in Krebs-Henseleit buffer; from tissue; host or cells: abdominal aorta rings of female New Zealand White rabbits
T1 sequence (P34976 1-359): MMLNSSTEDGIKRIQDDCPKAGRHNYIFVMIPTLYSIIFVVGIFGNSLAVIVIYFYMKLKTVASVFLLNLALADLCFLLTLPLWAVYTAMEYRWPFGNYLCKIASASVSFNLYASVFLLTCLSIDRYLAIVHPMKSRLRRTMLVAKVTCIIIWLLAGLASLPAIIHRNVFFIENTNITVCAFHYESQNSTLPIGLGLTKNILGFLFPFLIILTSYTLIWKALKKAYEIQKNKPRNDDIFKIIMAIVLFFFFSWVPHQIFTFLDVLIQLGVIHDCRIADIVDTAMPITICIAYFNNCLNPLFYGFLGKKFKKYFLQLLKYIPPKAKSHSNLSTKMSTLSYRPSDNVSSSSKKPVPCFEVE
From the text: ANGIOTENSIN II FUNCTIONAL ASSAY
Antagonism of Contraction of Rabbit Aorta
The protocol reported by A. T. Chiu and P. Timmermans (P. C. Wong, et al. Hypertension, 13, 489-497 (1989)) was followed with a few modifications. Female New Zealand White rabbits weighing 2-5 kg were sedated with carbon dioxide and then sacrificed. Main abdominal aortas were removed and placed in Krebs-Henseleit buffer at room temperature.
The tissues were cleaned of extraneous connective tissue, cut into 3 mm rings, and suspended within a 10 mL tissue bath. All dilutions of peptide preparations were made with 0.3% aqueous BSA. The tissues were primed with 55 mM potassium chloride. Tissues were pre-loaded with 1 g of tension. Tension was recorded on a model 7 Grass polygraph using FT03 transducers. At the end of the equilibrium period, a control cumulative concentration-contractile response curve for angiotensin II (A II: 1×10^-10 -10^-8 M) was obtained. The tissue was washed several times until the baseline was reached. Forty five minutes later, test compound (antagonist) was added and the tissue was incubated for 30 minutes. The concentration-response curve for A II was then repeated in the presence of the test compound. One dose of antagonist was tested per tissue only. For single dose shift experiments a dose of 1 mM of test compound was used, for a full pA2 experiment multiple doses were used depending upon the potency of the antagonist.
All responses to the control agonist were calculated as a percentage of the maximum response. These points in duplicate were plotted and analyzed according to standard Schild analysis (H. O. Schild, British J Pharmacology and Chemotherapy, 2, 189-206 (1947). The pA2 values calculated for the compounds of the invention are shown in Table 1. The pA2 value is the negative logarithm of the [A]2 value. [A]2 is the concentration of antagonist which necessitates doubling the agonist concentration in order to achieve the agonist effect which was measured in the absence of antagonist.
The pA2 value, therefore is a measure of the effectiveness of the compound as an antagonist.

[1] = system: hypertension and congestive heart failure; conditions: background; cited from earlier work
angiotensin II = conditions: background; cited from earlier work
[2] = after intravenous administration; due to angiotensin receptor agonist activity; cited from earlier work
[3] = background; cited from earlier work

Kb (angiotensin II receptor): 589 nM
SMILES: CCCN(Cc1ccc(OC(C(=O)O)c2ccccc2)cc1)c1nc(C)ncc1C(=O)O (stereo not drawn) [Example 1, 4-[N-4-(1-Carboxy-1-phenylmethoxy)benzyl-N-propyl]amino-2-methylpyrimidine-5-carboxylic acid]

pA2 (angiotensin II receptor; pA2 = negative logarithm of [A]2, 30 min): 7.53
SMILES: CCCN(Cc1ccc2c(Br)c(-c3ccccc3-c3nn[nH]n3)sc2c1)c1ncccc1C(=O)O [Example 3]

Kb (angiotensin II receptor): 0.132 nM
SMILES: CCCN(Cc1ccc(-n2cc(Br)cc2-c2nn[nH]n2)cc1)c1ncccc1C(=O)O [Example 4H, 2-{N-Propyl-N-[(1-[3-bromo-5-(1H-tetrazol-5-yl)pyrrole-1-yl]phenyl-4-yl)methyl]amino}pyridine-3-carboxylic acid]

SMILES: C[C@H](CS)C(=O)N1CCC[C@H]1C(=O)O [captopril]
clinical efficacy in treating hypertension and congestive heart failure (in words) [1]: have clinical efficacy in treating hypertension and congestive heart failure

SMILES: CCOC(=O)[C@H](CCc1ccccc1)N[C@@H](C)C(=O)N1CCC[C@H]1C(=O)O [enalapril]
clinical efficacy in treating hypertension and congestive heart failure (in words) [1]: have clinical efficacy in treating hypertension and congestive heart failure

SMILES: COc1ccc(C[C@H](NC(=O)CC(C)(C)N)C(=O)N[C@@H](Cc2cnc[nH]2)C(=O)N[C@@H](CC2CCCCC2)[C@@H](O)[C@@H](O)CC(C)C)cc1 [enalkiren]
clinical efficacy in treating hypertension and congestive heart failure (in words) [1]: have clinical efficacy in treating hypertension and congestive heart failure

SMILES: CNCC(=O)N[C@@H](CCCN=C(N)N)C(=O)N[C@H](C(=O)N[C@@H](Cc1ccc(O)cc1)C(=O)N[C@H](C(=O)N[C@@H](Cc1cnc[nH]1)C(=O)N1CCC[C@H]1C(=O)N[C@@H](C)C(=O)O)C(C)C)C(C)C [saralasin, [Sar^1, Ala^8] angiotensin II]
antagonist of the actions of angiotensin II (in words) (angiotensin II): potent antagonist of the actions of angiotensin II | initial blood pressure change (in words) [2]: initial increase in blood pressure after intravenous administration | oral bioavailability (in words) [3]: very poor oral bioavailability

— patent US5364869A, “Heterocycle-substituted benzyaminopyridine angiotensin II receptor antagonists” (Abbott Laboratories, priority 1993, dated 1994)
